Two compounds from ChEMBL document CHEMBL5252509, “In depth analysis of kinase cross screening data to identify chemical starting points for inhibition of the Nek family of kinases” (Medchemcomm, 2018) can be followed below.

Assay [1] concerns the target T1, Cytoplasmic tyrosine-protein kinase BMX (Homo sapiens) (UniProt P51813).
T1 sequence (whole entry): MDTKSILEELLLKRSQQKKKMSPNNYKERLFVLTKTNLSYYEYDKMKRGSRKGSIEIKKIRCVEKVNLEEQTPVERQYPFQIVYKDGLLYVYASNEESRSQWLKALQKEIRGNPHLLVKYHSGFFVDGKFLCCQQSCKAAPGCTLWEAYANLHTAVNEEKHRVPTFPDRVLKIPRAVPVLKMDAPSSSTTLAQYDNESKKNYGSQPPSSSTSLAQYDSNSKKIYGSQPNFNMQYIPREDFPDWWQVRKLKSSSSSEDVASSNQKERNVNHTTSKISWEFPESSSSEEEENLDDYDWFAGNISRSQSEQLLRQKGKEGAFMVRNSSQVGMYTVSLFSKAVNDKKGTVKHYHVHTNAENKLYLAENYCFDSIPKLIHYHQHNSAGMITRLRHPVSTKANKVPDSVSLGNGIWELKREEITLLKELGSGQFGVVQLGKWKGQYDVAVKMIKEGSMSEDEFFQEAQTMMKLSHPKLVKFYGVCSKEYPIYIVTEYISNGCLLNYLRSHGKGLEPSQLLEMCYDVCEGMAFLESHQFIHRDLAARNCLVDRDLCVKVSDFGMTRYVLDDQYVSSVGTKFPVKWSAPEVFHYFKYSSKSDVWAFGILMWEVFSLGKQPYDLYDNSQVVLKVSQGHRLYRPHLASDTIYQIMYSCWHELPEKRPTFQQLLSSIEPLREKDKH
Briefly: Inhibition of BMX (unknown origin) at 1 uM relative to control.

Assay [2] has as its target Fibroblast growth factor receptor 3 (Homo sapiens) (UniProt P22607). Briefly: Inhibition of FGFR3 (unknown origin) at 1 uM relative to control.
The target of assay [3] is T2, Serine/threonine-protein kinase Nek10 (Homo sapiens) (UniProt Q6ZWH5).
T2 sequence (whole entry): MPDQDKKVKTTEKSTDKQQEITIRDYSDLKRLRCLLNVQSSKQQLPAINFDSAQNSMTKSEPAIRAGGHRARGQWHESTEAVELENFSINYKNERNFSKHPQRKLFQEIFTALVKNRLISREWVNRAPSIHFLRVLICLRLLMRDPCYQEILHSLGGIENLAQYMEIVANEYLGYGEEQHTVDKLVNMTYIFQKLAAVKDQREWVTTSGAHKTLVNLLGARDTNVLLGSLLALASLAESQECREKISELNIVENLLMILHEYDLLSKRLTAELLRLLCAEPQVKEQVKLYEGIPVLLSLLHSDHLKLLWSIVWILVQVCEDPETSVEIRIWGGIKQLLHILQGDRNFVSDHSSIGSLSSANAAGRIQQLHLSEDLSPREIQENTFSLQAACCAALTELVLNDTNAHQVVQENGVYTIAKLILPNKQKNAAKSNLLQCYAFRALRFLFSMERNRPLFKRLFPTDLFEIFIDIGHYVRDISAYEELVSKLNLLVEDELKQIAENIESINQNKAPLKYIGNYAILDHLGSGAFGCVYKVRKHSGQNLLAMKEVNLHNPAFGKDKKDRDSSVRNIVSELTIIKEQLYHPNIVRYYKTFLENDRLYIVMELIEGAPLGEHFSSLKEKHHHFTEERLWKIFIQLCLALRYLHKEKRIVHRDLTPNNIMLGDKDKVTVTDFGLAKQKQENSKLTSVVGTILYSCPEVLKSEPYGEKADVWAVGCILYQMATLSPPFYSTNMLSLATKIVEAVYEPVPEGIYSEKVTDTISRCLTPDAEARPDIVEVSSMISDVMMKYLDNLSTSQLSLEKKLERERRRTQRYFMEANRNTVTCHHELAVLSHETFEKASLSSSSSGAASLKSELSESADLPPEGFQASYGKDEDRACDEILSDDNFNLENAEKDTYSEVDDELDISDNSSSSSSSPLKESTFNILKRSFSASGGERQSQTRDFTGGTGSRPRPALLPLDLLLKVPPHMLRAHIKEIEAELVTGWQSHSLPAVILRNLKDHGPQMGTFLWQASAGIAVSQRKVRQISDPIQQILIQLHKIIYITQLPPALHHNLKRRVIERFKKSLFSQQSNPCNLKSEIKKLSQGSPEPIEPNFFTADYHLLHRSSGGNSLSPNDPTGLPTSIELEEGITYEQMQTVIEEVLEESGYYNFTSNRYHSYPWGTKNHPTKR
In words: Inhibition of NEK10 (unknown origin) at 1 uM relative to control.

In assay [4] the target is Angiopoietin-1 receptor (Homo sapiens) (UniProt Q02763). Briefly: Inhibition of TIE2 (unknown origin) at 1 uM relative to control.
Angiopoietin-1 receptor (Homo sapiens), sequence (Q02763 whole entry): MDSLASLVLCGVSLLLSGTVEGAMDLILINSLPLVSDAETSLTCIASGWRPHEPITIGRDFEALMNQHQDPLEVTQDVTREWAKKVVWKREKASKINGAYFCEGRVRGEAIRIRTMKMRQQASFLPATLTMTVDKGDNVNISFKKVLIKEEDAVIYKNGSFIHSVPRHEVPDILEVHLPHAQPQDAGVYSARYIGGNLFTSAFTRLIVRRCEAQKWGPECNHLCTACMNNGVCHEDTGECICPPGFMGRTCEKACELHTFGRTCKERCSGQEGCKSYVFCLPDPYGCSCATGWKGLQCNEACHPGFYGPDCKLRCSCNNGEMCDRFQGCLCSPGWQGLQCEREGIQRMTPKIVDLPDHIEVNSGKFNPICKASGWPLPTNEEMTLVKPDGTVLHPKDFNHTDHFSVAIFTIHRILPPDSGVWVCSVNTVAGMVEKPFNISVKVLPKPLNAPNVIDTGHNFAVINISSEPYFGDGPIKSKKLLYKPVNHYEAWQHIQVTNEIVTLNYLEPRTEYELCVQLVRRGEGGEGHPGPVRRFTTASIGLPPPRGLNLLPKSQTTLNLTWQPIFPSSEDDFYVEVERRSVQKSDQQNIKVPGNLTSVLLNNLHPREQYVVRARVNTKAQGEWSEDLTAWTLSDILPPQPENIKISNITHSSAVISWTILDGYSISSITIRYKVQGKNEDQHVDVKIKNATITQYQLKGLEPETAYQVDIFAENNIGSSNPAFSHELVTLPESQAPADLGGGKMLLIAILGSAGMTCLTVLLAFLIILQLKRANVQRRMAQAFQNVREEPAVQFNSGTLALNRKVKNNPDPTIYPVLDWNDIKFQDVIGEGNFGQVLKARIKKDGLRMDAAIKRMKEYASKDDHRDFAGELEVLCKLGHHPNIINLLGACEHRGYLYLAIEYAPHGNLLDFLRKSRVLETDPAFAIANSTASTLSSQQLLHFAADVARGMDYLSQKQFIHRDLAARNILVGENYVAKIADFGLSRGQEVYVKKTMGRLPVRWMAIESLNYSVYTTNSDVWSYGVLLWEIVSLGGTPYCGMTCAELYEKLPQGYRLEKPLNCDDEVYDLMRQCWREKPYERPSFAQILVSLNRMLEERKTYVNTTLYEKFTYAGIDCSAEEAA
The target of assay [5] is T3, Mitogen-activated protein kinase kinase kinase 19 (Homo sapiens) (UniProt Q56UN5).
T3 sequence (whole entry): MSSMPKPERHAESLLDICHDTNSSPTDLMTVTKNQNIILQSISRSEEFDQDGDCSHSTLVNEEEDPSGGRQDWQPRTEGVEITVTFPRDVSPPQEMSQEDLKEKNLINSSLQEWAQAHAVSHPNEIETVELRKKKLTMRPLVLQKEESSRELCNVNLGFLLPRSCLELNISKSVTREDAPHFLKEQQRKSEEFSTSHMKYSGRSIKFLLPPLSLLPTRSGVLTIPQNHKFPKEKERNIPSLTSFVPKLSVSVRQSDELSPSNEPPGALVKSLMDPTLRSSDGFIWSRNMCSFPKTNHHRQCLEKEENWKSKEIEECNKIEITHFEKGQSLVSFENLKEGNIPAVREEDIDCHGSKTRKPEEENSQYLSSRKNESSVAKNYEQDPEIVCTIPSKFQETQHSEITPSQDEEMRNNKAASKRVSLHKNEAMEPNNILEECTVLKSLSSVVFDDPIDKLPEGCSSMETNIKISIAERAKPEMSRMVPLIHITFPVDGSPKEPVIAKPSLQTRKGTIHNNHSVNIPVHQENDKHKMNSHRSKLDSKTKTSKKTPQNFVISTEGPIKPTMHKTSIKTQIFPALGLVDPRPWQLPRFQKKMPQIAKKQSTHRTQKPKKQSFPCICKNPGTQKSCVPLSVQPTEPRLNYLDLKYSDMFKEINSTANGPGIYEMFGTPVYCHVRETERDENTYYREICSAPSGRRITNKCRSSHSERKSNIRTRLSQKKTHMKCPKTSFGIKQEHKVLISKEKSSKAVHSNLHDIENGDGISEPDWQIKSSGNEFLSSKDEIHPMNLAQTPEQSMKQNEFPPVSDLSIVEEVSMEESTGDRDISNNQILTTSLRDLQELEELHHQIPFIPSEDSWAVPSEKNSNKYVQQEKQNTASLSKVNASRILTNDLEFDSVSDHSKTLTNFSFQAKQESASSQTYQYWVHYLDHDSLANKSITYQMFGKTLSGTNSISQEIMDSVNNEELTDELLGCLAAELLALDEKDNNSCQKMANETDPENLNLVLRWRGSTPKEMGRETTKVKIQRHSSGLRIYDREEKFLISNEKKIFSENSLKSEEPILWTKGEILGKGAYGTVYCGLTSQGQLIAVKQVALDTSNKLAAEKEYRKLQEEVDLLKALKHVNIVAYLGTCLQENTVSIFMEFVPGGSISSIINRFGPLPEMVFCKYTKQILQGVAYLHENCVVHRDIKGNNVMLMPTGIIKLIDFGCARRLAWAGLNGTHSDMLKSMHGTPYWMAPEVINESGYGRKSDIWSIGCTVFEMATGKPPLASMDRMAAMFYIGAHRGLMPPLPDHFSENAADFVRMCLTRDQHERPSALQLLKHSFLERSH
In words: Inhibition of YSK4 (unknown origin) at 1 uM relative to control.

The target in assay [6] is Serine/threonine-protein kinase Nek4 (Homo sapiens) (UniProt P51957). In words: Inhibition of NEK4 (unknown origin) at 100 nM relative to control.
Serine/threonine-protein kinase Nek4 (Homo sapiens), sequence (P51957 whole entry, looked up): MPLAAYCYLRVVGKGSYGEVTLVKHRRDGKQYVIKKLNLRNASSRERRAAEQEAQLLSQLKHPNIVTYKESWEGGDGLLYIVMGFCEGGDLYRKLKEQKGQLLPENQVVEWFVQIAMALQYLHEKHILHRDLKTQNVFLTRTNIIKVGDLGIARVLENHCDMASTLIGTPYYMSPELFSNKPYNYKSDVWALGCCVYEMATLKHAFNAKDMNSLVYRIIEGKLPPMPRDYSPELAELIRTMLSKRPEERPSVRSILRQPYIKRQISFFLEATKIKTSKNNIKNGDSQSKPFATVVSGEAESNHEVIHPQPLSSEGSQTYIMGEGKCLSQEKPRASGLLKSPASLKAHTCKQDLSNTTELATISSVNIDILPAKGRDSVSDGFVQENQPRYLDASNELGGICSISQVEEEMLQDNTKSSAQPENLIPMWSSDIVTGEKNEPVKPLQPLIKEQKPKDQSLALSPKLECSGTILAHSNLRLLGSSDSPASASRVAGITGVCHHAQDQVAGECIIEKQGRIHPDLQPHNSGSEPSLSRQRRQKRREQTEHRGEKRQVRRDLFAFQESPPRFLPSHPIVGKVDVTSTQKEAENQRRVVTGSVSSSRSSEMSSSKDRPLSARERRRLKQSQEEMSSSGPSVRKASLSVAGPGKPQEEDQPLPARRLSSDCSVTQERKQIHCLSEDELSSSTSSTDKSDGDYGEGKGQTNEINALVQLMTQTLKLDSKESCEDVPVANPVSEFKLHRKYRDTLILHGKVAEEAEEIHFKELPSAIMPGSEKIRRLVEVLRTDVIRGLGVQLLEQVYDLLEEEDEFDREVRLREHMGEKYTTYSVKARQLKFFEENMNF

Fibroblast growth factor receptor 3 (Homo sapiens), sequence (P22607 23-806 limits assumed): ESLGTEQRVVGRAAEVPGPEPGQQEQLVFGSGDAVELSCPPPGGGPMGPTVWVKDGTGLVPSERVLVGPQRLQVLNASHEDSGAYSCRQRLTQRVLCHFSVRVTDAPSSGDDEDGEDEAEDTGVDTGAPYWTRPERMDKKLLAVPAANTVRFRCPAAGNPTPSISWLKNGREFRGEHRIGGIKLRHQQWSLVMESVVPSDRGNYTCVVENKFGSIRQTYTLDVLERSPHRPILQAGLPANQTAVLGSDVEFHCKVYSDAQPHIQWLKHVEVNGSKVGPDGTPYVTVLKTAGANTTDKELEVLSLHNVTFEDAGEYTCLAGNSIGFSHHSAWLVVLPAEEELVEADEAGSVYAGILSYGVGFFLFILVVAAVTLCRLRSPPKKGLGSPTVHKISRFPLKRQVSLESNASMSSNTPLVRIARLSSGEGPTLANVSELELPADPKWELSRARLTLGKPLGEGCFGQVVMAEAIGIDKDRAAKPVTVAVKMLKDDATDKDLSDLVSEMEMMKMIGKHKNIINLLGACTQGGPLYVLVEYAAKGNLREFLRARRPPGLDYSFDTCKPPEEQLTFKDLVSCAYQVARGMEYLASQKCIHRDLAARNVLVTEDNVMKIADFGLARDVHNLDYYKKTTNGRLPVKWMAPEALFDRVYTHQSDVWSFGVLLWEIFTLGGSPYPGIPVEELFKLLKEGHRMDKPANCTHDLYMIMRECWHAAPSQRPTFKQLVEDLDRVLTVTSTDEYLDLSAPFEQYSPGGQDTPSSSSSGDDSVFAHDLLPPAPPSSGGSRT

With `Cc1cc2cn[nH]c2cc1-c1cccc2c(N)c(C(N)=O)nnc12`, the inhibition stood at 83% in assay [1]; 0% in assay [2]; 86% in assay [3]; 31% in assay [4]; 71% in assay [5].

`Ic1ccc(Oc2cncc3sc(-c4nn[nH]n4)cc23)cc1` returned an inhibition in assay [6] of 47.5%.
